Experimental findings from patent US12187723B2 (BRISTOL-MYERS SQUIBB COMPANY, priority 2019, dated 2025) are described below.

The target in one test is T1, human TLR9 (Homo sapiens, UniProt Q9NR96).
T1 construct: host or cells: HEK-Blue cells
T1 sequence (Q9NR96 26-1032): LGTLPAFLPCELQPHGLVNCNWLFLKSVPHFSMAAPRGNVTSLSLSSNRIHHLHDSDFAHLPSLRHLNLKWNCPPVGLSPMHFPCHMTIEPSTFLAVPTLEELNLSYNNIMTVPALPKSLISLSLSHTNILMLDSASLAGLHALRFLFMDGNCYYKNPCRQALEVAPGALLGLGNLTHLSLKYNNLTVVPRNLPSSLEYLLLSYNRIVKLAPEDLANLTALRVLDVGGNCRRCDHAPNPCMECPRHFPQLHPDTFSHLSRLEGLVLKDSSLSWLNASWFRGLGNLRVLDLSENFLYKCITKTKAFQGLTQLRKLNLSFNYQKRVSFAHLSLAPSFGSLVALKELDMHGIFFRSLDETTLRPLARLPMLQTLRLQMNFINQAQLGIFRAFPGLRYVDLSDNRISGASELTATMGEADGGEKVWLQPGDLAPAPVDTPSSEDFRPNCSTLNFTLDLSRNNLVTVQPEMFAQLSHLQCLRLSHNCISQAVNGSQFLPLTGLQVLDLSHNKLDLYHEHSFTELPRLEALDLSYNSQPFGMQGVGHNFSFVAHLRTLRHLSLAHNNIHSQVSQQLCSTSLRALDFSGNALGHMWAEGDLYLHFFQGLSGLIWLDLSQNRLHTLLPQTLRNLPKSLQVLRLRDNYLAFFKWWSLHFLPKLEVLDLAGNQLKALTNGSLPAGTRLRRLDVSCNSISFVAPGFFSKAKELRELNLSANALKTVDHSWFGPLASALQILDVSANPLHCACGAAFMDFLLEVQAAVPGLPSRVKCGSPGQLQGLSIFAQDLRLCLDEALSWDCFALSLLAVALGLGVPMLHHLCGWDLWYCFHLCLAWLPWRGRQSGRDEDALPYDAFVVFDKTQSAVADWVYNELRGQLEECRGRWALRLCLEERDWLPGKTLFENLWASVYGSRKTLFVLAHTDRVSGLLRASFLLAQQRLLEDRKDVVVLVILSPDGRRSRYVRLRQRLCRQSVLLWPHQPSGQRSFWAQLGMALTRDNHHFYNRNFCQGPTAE
In words: TLR9 inhibition reporter assay (HEK-Blue SEAP). The test is classed as cell-based. The note with it: HEK-Blue cells overexpressing human TLR9, ODN2006 5 nM, 22 hour incubation. In outline:
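Dose–response from 0.05 nM to 50 μM was run in HEK-Blue human TLR7, TLR8 and TLR9 reporter cells. After 30 min at room temperature with compound, ligand was added (TLR7 gardiquimod 7.5 μM; TLR8 R848 15.9 μM; TLR9 ODN2006 5 nM) and SEAP measured next day, at 22 h.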
A general note: A reporter such as luciferase makes a cellular process visible.

A further test addresses T2, human TLR7 (Homo sapiens, UniProt Q9NYK1).
T2 construct: host or cells: HEK-Blue cells
T2 sequence (Q9NYK1 27-1049): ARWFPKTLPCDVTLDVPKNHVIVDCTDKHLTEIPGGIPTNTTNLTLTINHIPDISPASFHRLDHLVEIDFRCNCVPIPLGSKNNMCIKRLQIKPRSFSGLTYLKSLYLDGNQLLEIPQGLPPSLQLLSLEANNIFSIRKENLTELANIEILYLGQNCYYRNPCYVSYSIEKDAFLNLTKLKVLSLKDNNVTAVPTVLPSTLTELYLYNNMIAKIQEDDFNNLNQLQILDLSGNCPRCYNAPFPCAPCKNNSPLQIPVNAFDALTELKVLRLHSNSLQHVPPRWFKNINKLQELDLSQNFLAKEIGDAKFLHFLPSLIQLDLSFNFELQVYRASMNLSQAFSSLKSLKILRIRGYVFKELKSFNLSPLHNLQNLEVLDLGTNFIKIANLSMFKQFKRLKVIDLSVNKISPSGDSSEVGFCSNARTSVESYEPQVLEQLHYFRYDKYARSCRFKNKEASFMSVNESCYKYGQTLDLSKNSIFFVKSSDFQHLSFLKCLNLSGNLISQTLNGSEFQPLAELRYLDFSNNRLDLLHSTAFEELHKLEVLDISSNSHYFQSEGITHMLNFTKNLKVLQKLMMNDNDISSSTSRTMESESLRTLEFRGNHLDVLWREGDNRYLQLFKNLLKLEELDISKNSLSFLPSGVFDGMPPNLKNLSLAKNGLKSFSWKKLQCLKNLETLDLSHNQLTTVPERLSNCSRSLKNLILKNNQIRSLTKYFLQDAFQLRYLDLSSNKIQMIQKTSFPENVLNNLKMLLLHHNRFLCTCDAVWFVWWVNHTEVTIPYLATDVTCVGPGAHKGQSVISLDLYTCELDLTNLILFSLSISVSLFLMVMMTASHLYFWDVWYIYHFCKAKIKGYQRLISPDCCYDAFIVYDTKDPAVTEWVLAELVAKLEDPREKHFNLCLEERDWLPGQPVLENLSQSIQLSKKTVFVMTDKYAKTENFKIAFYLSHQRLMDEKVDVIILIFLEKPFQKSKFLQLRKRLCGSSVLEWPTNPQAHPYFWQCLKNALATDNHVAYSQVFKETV
In words: TLR7 inhibition reporter assay (HEK-Blue SEAP). The test is classed as cell-based. The note with it: HEK-Blue cells overexpressing human TLR7, gardiquimod 7.5 μM, 22 hour incubation. Put shortly:
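In this cell reporter format, test compounds at 0.05 nM-50 μM final incubate 22 h with seeded cells (TLR7 15000, TLR8 20,000 per well). SEAP read-out by HEK-Blue Detection medium yields % inhibition relative to agonist/DMSO and known-inhibitor wells.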

Consider `COc1cc(-c2cc3[nH]c(=O)n([C@@H]4CCCN(C5CCOC5)C4)c3cc2C(C)C)cn2ncnc12` (stereo partly drawn) [Example 216, 6-isopropyl-5-(8-methoxy-[1,2,4]triazolo[1,5-a]pyridin-6-yl)-1-((3R)-1-(tetrahydrofuran-3-yl)piperidin-3-yl)-1,3-dihydro-2H-benzo[d]imidazol-2-one], for which the IC50 at human TLR9 was over 50 µM; against human TLR7 it was 14.6 nM.
For `COc1cc(-c2cc3[nH]c(=O)n(C4CCC(N5CCCC5)CC4)c3cc2C(C)C)cn2ncnc12` (centres unmarked) [Example 232, 6-isopropyl-5-(8-methoxy-[1,2,4]triazolo[1,5-a]pyridin-6-yl)-1-(4-(pyrrolidin-1-yl)cyclohexyl)-1,3-dihydro-2H-benzo[d]imidazol-2-one] the same measures were 7.78 µM and 1.4 nM.
For the compound `CCN1CCC[C@@H](n2c(=O)[nH]c3cc(-c4cc(C)c5ncnn5c4)c(C)cc32)C1` [Example 16, (R)-1-(1-ethylpiperidin-3-yl)-6-methyl-5-(8-methyl-[1,2,4]triazolo[1,5-a]pyridin-6-yl)-1,3-dihydro-2H-benzo[d]imidazol-2-one], the IC50 against human TLR9 was 8.95 µM; on human TLR7, 17 nM.
As for `COc1cc(-c2cc3[nH]c(=O)n(C4CCC(N5CCNC(=O)C5)CC4)c3cc2C(C)C)cn2ncnc12` (single isomer, unassigned) [Example 234, 6-isopropyl-5-(8-methoxy-[1,2,4]triazolo[1,5-a]pyridin-6-yl)-1-(4-(3-oxopiperazin-1-yl)cyclohexyl)-1,3-dihydro-2H-benzo[d]imidazol-2-one], the IC50 against human TLR9 is over 50 µM; on human TLR7, 42.7 nM.
Take `Cc1c(-c2cc3[nH]c(=O)n([C@H]4CC[C@@H](NC5COC5)CC4)c3cc2C(C)C)cn2ncnc2c1C` [Example 188, 5-(7,8-dimethyl-[1,2,4]triazolo[1,5-a]pyridin-6-yl)-6-isopropyl-1-((1s,4s)-4-(oxetan-3-ylamino)cyclohexyl)-1,3-dihydro-2H-benzo[d]imidazol-2-one]: the IC50 came out at 22.2 µM against human TLR9 and 7.14 nM on human TLR7.
`CCc1cc2c(cc1-c1cc(OC)c3ncnn3c1)[nH]c(=O)n2[C@@H]1CCCN(CCC(C)(C)C)C1` [Example 208, (R)-1-(1-(3,3-dimethylbutyl)piperidin-3-yl)-6-ethyl-5-(8-methoxy-[1,2,4]triazolo[1,5-a]pyridin-6-yl)-1,3-dihydro-2H-benzo[d]imidazol-2-one]: the IC50 at human TLR9 stood at 3.32 µM; on human TLR7 it was 6.52 nM.
As for `COc1cc(-c2cc3[nH]c(=O)n(C4CCC(N5CCNC(=O)C5)CC4)c3cc2C(C)C)cn2ncnc12` (single isomer, unassigned) [Example 233, 6-isopropyl-5-(8-methoxy-[1,2,4]triazolo[1,5-a]pyridin-6-yl)-1-(4-(3-oxopiperazin-1-yl)cyclohexyl)-1,3-dihydro-2H-benzo[d]imidazol-2-one], the figures for the IC50 against human TLR9 and against human TLR7 were over 50 µM and 11 nM, respectively.
For `CCc1cc2c(cc1-c1cc(OC)c3ncnn3c1)[nH]c(=O)n2[C@@H]1CCCN(CC2CC2)C1` [Example 182, (R)-1-(1-(cyclopropylmethyl)piperidin-3-yl)-6-ethyl-5-(8-methoxy-[1,2,4]triazolo[1,5-a]pyridin-6-yl)-1,3-dihydro-2H-benzo[d]imidazol-2-one], the values for the IC50 at human TLR9 and against human TLR7 were 7.94 µM and 1.93 nM, respectively.
For the compound `COc1cc(-c2cc3[nH]c(=O)n(C4CCC(N5CCC6(CC5)COC6)CC4)c3cc2C(C)C)cn2ncnc12` (centres unmarked) [Example 240, 1-(4-(2-oxa-7-azaspiro[3.5]nonan-7-yl)cyclohexyl)-6-isopropyl-5-(8-methoxy-[1,2,4]triazolo[1,5-a]pyridin-6-yl)-1,3-dihydro-2H-benzo[d]imidazol-2-one], the IC50 on human TLR9 was determined as 4.43 µM; on human TLR7, 3.52 nM.
For the compound `CCCN1CCC[C@@H](n2c(=O)[nH]c3cc(-c4cc(OC)c5ncnn5c4)c(CC)cc32)C1` [Example 179, (R)-6-ethyl-5-(8-methoxy-[1,2,4]triazolo[1,5-a]pyridin-6-yl)-1-(1-propylpiperidin-3-yl)-1,3-dihydro-2H-benzo[d]imidazol-2-one], the IC50 came out at 6.86 µM against human TLR9 and 1.06 nM on human TLR7.

For orientation: IC50 means the concentration at which inhibition is half-maximal. A low value points to greater potency in that assay.
